“Also recorded” adds a separate entry of the source.
Legend:
[1] = Long term stability: base (2M NaOH) at ambient temperature; format: physicochemical; settings: 2M NaOH, dark, ambient, up to 14 days
Method: (§1) Osanetant p-toluenesulfonic acid Form 1 and osanetant benzenesulfonic acid Form 1 were tested for long-term stability across a number of different conditions, as detailed below.
(§2) Base at Ambient Temperature—Osanetant p-toluenesulfonic acid Form 1 and osanetant benzenesulfonic acid Form 1 were prepared at an osanetant content 10 times the normal working concentration then added to HPLC vials containing 2M NaOH and stored in the dark at ambient laboratory conditions. Samples were diluted to 2 mg/mL for analysis and were taken after T=1, 2, 4, 7, and 14 days storage. […] The purity of the resulting material is described in Table 44: […]

[2] = Long term stability: oxidation (6% H2O2) at ambient temperature; format: physicochemical; settings: 6% H2O2, dark, ambient, up to 14 days
Method: as §1
as §2, with “Oxidation” for “Base”, “Temperature-Osanetant” for “Temperature—Osanetant”, “6% H2O2” for “2M NaOH”, “46:” for “44:”

[3] = Long term stability: thermal stability of solids at 60° C.; format: physicochemical; settings: solids, darkened oven at 60° C., up to 14 days
Method: as §1
Thermal stability of solids at 60° C.—Osanetant p-toluenesulfonic acid Form 1 and osanetant benzenesulfonic acid Form 1 were stored in a darkened oven at 60° C. in glass vials. Samples were taken after T=1, 2, 4, 7, and 14 days storage. […] The purity of the resulting material is described in Table 41: […]

[4] = Salt screen: XRPD of isolated solids after drying at 40° C. and at 40° C./75% RH; format: physicochemical; settings: for XRPD after drying at 40° C./75% RH: after 40° C. drying, dried at 40° C./75% RH for about 24 h, label = form after 40° C. drying; for XRPD after drying at 40° C.: isolated solids dried at 40° C. for about 24 h, label = wet form
Method: To approximately 20 mg of amorphous lyophilized osanetant was added 0.3 mL of solvent for liquid counterion experiments. 0.2 mL of solvent was employed for solid counterion experiments. […] To the stirring mixture was then added 1.05 mol eq. of the appropriate counterion. Where solid counterions were used, the vial which contained the counterion was washed in to the osanetant containing vial with 0.1 mL of the appropriate solvent. Additional solvent was added where necessary. The experiments were thermally cycled as follows: heated from 25 to 40° C. at a rate of 0.1° C./min; 1 h at 40° C.; Cool to 5° C. at a rate of 0.1° C.; 1 h at 5° C.; 40° C. at a rate of 0.1° C./min; […] The crystallization experiments were thermally cycled overnight, then slurries were isolated by centrifugation. XRPD analysis was carried out on any isolated solids or gums. The XRPD plate, and the isolated solids, were then dried at 40° C. for about 24 h, and XRPD analysis was repeated. The XRPD plate was then dried at 40° C./75% RH for about 24 h and XRPD analysis was again repeated. All other samples were allowed to evaporated at ambient temperature and pressure.

[5] = Long term stability: acid stability (2M HCl) at ambient temperature; format: physicochemical; settings: 2M HCl, dark, ambient, up to 14 days
Method: as §1
as §2, with “Acid Stability” for “Base”, “Temperature-Osanetant” for “Temperature—Osanetant”, “HCl” for “NaOH”, “42:” for “44:”

[6] = Long term stability: base (2M NaOH) at 60° C.; format: physicochemical; settings: 2M NaOH, 60° C., up to 14 days
Method: as §1
as §2, with “60° C.—Osanetant” for “Ambient Temperature—Osanetant”, “a darkened oven” for “the dark”, “60° C.” for “ambient laboratory conditions.”, “45:” for “44:”

[7] = Long term stability: oxidation (6% H2O2) at 60° C.; format: physicochemical; settings: 6% H2O2, 60° C., up to 14 days
Method: as §1
as §2, with “Oxidation” for “Base”, “60° C.—Osanetant” for “Ambient Temperature—Osanetant”, “6% H2O2” for “2M NaOH”, “a darkened oven” for “the dark”, “60° C.” for “ambient laboratory conditions.”, “47:” for “44:”

[8] = Solid form stability observations (scale up / polymorph work: drying, ambient conditions, aqueous media); format: physicochemical; settings: for form stability / re-hydration under ambient conditions: ambient conditions / room temperature and pressure
Method: Two anhydrous forms of the osanetant p-toluenesulfonic acid were synthesized. […] Form 6, described below, was a stable anhydrous form, but hydrated in water and aqueous solvent mixtures.
Advantageously, Form 1 (hydrate) and Form 6 (anhydrous) were stable on drying. Form 1 re-hydrated at room temperature and pressure after KF analysis, when it was heated in an oven to remove the water.
The experiment was cooled to 5° C. at a rate of 0.1° C./min and stirred at 5° C. for 18 h. The slurry was isolated be Buchner filtration: 42.5 mm Ø grade 1 Whatman filter paper; fast Filtration (<30 s); the cake was washed with 1 mL of ethyl acetate; the isolated solids were dried at 40° C. under vacuum for 72 h. […]

[9] = Thermodynamic solubility in water and pH buffers; settings: for Concentration: 24 h Solubility at 37° C.
[10] = Comparative studies: 7-day stability; format: physicochemical; settings: for HPLC Impurity Content: 7 Day Stability
Method: Osanetant p-toluenesulfonic acid Form 1, osanetant benzene sulfonic acid Form 3, osanetant naphthalene-2-sulfonic acid Form 3, and osanetant phosphoric acid Form 7 were compared. Osanetant phosphoric acid Form 7 was obtained when preparation of osanetant phosphoric acid Form 4 was repeated and found to be not reproducible, and Form 7 was determined to be a mixture of hydrates).
Thus, osanetant benzene sulfonic acid salt Form 1 and osanetant p-toluene sulfonic acid salt Form 1 were identified as advantageous salts.

CC(=O)N(C)C1(c2ccccc2)CCN(CCC[C@]2(c3ccc(Cl)c(Cl)c3)CCCN(C(=O)c3ccccc3)C2)CC1.O=S(=O)(O)c1ccccc1 [osanetant benzenesulfonic acid Form 1, (R)-N-(1-(3-(1-benzoyl-3-(3,4-dichlorophenyl)piperidin-3-yl)propyl)-4-phenylpiperidin-4-yl)-N-methylacetamide benzenesulfonic acid]
degradation on storage (purity) [1]: lack of degradation | degradation on storage (purity) [2]: lack of degradation | degradation on storage (purity) [3]: lack of degradation | XRPD after drying at 40° C./75% RH [4]: retained; also recorded: stable; also recorded: Form 1 | XRPD after drying at 40° C. [4]: Form 1 | degradation on storage (purity) [5]: lack of degradation | degradation on storage (purity) [6]: lack of degradation | degradation on storage (purity) [7]: lack of degradation

CC(=O)N(C)C1(c2ccccc2)CCN(CCC[C@]2(c3ccc(Cl)c(Cl)c3)CCCN(C(=O)c3ccccc3)C2)CC1.Cc1ccc(S(=O)(=O)O)cc1 [osanetant p-toluenesulfonic acid Form 5]
form stability / re-hydration under ambient conditions [8]: rehydrates to Form 1; also recorded: re-hydrated to Form 1; also recorded: hydrated at ambient conditions to Form 1

CC(=O)N(C)C1(c2ccccc2)CCN(CCC[C@]2(c3ccc(Cl)c(Cl)c3)CCCN(C(=O)c3ccccc3)C2)CC1.Cc1ccc(S(=O)(=O)O)cc1 [osanetant p-toluenesulfonic acid Form 6, (R)-N-(1-(3-(1-benzoyl-3-(3,4-dichlorophenyl)piperidin-3-yl)propyl)-4-phenylpiperidin-4-yl)-N-methylacetamide p-toluenesulfonic acid]
hydration / form conversion in water and aqueous solvent mixtures [8]: hydrated | form stability / re-hydration under ambient conditions [8]: stable | form on drying ([8]; drying (40° C. under vacuum where stated)): stable

CC(=O)N(C)C1(c2ccccc2)CCN(CCC[C@]2(c3ccc(Cl)c(Cl)c3)CCCN(C(=O)c3ccccc3)C2)CC1.O=P(O)(O)O [osanetant phosphoric acid Form 7]
disproportionation in buffer ([9]; pH 6.8 buffer): Disproportionation was observed | solid chemical stability ([10]; 7-day stability results, overall): Good and best chemical stability | solid form on 7-day stability ([10]; 7 days, elevated temperature where stated): loss in crystallinity at elevated temperature

CC(=O)N(C)C1(c2ccccc2)CCN(CCC[C@]2(c3ccc(Cl)c(Cl)c3)CCCN(C(=O)c3ccccc3)C2)CC1.Cc1ccc(S(=O)(=O)O)cc1 [pTSA Form 6]
Concentration ([9]; pH 1.2): 45800 ng/mL | Concentration ([9]; pH 4.5): 63000 ng/mL | Concentration ([9]; pH 6.8): 35600 ng/mL | HPLC Impurity Content ([10]; 40° C./75% RH): 0.11 % w/w | HPLC Impurity Content ([10]; 80° C.): 0.88 % w/w | HPLC Impurity Content ([10]; Ambient Light): 0.11 % w/w

(R)-N-(1-(3-(1-benzoyl-3-(3,4-dichlorophenyl)piperidin-3-yl)propyl)-4-phenylpiperidin-4-yl)-N-methylacetamide naphthalene-2-sulfonic acid [osanetant naphthalene-2-sulfonic acid Form 1]
XRPD after drying at 40° C./75% RH [4]: retained; also recorded: stable; also recorded: Form 1 | XRPD after drying at 40° C. [4]: retained; also recorded: Form 1

(R)-N-(1-(3-(1-benzoyl-3-(3,4-dichlorophenyl)piperidin-3-yl)propyl)-4-phenylpiperidin-4-yl)-N-methylacetamide naphthalene-2-sulfonic acid [osanetant naphthalene-2-sulfonic acid Form 2]
XRPD after drying at 40° C./75% RH [4]: retained; also recorded: stable; also recorded: Form 2* | XRPD after drying at 40° C. [4]: retained; also recorded: Form 2*

(R)-N-(1-(3-(1-benzoyl-3-(3,4-dichlorophenyl)piperidin-3-yl)propyl)-4-phenylpiperidin-4-yl)-N-methylacetamide naphthalene-2-sulfonic acid [osanetant naphthalene-2-sulfonic acid Form 4]
XRPD after drying at 40° C./75% RH [4]: retained; also recorded: stable; also recorded: Form 4 | XRPD after drying at 40° C. [4]: retained; also recorded: Form 4

Source: patent US20240336565A1, “SOLID FORMS OF OSANETANT” (Acer Therapeutics, Inc., priority 2021, published 2024)
